The target in data set [1] is T1, Retinoic acid receptor RXR-alpha (Homo sapiens, UniProt P19793).
T1 sequence (P19793 whole entry): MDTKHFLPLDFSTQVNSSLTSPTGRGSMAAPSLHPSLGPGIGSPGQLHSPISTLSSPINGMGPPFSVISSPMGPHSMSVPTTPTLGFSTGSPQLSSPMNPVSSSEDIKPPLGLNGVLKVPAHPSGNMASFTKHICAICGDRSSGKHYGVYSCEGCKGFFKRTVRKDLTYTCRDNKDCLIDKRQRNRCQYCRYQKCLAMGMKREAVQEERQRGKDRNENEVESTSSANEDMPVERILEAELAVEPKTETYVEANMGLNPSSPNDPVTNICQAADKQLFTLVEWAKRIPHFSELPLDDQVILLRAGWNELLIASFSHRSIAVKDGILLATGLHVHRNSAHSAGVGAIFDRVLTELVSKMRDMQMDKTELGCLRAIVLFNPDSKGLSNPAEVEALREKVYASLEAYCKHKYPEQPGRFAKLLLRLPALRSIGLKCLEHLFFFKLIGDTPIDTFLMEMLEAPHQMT
Description: Agonist activity at human GAL4-fused RXRalpha LBD expressed in human HEK293T cells cotransfected with pFR-Luc and pRL-SV40 assessed as increase in luciferase activity incubated for 16 hrs by Dual-Glo luciferase assay. It is filed as cell-based.

Data set [2] deals with T2, Retinoic acid receptor RXR-beta (Homo sapiens, UniProt P28702).
T2 sequence (P28702 whole entry): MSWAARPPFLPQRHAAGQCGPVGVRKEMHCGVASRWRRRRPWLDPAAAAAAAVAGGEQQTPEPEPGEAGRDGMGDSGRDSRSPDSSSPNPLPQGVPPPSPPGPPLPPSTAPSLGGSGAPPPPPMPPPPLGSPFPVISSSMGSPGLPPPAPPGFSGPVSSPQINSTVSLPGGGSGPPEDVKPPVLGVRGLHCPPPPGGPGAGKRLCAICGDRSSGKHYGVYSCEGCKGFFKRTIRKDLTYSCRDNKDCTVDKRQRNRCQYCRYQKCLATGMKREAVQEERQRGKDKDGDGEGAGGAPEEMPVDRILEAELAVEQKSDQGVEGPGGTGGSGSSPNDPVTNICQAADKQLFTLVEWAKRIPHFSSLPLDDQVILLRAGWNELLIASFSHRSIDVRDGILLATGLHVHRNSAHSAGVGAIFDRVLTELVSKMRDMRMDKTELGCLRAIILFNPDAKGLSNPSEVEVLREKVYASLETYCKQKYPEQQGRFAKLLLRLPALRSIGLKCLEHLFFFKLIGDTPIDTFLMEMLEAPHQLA
Description: Agonist activity at human GAL4-fused RXRbeta LBD expressed in human HEK293T cells cotransfected with pFR-Luc and pRL-SV40 assessed as increase in luciferase activity incubated for 16 hrs by Dual-Glo luciferase assay. The format is cell-based.

Data set [3] has as its target T3, Retinoic acid receptor RXR-gamma (Homo sapiens, UniProt P48443).
T3 sequence (P48443 whole entry): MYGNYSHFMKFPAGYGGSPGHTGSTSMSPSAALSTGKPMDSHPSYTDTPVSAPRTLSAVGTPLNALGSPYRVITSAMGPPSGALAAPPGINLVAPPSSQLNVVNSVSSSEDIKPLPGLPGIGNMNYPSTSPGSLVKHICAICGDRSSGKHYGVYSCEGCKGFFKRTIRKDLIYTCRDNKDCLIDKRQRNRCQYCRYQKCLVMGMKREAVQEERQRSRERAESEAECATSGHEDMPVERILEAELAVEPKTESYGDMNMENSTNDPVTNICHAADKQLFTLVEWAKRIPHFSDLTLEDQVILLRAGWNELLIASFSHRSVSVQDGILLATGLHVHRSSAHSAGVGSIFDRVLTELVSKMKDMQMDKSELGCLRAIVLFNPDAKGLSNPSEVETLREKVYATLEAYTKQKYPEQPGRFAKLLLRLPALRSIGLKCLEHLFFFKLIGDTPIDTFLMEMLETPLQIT
Description: Agonist activity at human GAL4-fused RXRgamma LBD expressed in human HEK293T cells cotransfected with pFR-Luc and pRL-SV40 assessed as increase in luciferase activity incubated for 16 hrs by Dual-Glo luciferase assay. It is filed as cell-based.

Data set [4] has as its system HEK-293T. Put plainly: Cytotoxicity in human HEK293T cells coexpressing GAL4-fused RXRbeta LBD, pFR-Luc and pRL-SV40 assessed as reduction in cell viability at > 10 uM incubated for 16 hrs by Dual-Glo luciferase assay. It is filed as toxicity, cell-based.
In data set [5] the test system is HEK-293T. Put plainly: Cytotoxicity in human HEK293T cells coexpressing GAL4-fused RXRalpha LBD, pFR-Luc and pRL-SV40 assessed as reduction in cell viability at > 10 uM incubated for 16 hrs by Dual-Glo luciferase assay. The format is toxicity, cell-based.
For data set [6], the system named is HEK-293T. Description: Cytotoxicity in human HEK293T cells coexpressing GAL4-fused RXRgamma LBD, pFR-Luc and pRL-SV40 assessed as reduction in cell viability at > 10 uM incubated for 16 hrs by Dual-Glo luciferase assay. The format is toxicity, cell-based.
Data set [7] deals with T1, Retinoic acid receptor RXR-alpha. Description: Binding affinity to human RXRalpha LBD and measured for 180 sec by ITC analysis. (In general: ITC needs no label: the signal is the heat of the interaction.)
For data set [8], the target named is T4, CAR (NR1I3) (Homo sapiens, UniProt Q14994).
T4 sequence (Q14994 whole entry): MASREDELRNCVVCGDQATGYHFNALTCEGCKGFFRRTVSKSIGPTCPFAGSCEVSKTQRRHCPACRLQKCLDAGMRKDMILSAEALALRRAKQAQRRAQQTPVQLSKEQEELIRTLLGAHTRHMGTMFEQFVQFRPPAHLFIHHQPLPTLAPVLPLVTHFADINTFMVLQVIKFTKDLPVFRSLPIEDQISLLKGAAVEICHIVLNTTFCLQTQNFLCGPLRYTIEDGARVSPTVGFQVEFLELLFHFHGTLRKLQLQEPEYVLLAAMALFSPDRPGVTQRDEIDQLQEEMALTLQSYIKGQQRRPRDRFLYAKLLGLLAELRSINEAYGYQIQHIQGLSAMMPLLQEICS
Description: Agonist activity at human GAL4-fused CAR LBD expressed in human HEK293T cells cotransfected with pFR-Luc and pRL-SV40 assessed as increase in luciferase activity at 1 uM incubated for 16 hrs by Dual-Glo luciferase assay relative to control. The format is cell-based. Conditions: HEK293T cells expressing GAL4-fused CAR LBD, read-out: Activity.

The target in data set [9] is T5, PXR (NR1I2) (Homo sapiens, UniProt O75469).
T5 sequence (O75469 whole entry): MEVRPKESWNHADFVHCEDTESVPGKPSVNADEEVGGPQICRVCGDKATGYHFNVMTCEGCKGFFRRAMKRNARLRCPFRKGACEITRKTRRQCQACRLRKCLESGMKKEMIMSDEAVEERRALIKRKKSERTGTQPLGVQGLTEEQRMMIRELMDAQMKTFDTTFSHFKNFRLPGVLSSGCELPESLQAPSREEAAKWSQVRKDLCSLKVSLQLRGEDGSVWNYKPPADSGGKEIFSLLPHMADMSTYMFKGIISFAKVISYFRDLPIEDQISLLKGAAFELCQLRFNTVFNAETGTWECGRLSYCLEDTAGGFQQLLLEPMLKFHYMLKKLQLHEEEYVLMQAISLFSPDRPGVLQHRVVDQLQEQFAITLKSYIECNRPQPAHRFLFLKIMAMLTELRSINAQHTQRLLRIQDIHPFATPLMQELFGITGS
Put plainly: Agonist activity at human GAL4-fused PXR LBD expressed in human HEK293T cells cotransfected with pFR-Luc and pRL-SV40 assessed as increase in luciferase activity at 1 uM incubated for 16 hrs by Dual-Glo luciferase assay relative to control. It is filed as cell-based. Conditions: HEK293T cells expressing GAL4-fused PXR LBD, read-out: Activity.

For data set [10], the target named is T5, PXR (NR1I2). Put plainly: Agonist activity at human GAL4-fused PXR LBD expressed in human HEK293T cells cotransfected with pFR-Luc and pRL-SV40 assessed as increase in luciferase activity at 30 uM incubated for 16 hrs by Dual-Glo luciferase assay relative to control. It is filed as cell-based. Conditions: HEK293T cells expressing GAL4-fused PXR LBD, read-out: Activity.

The target of data set [11] is T3, Retinoic acid receptor RXR-gamma. Put plainly: Binding affinity to human RXRgamma LBD and measured for 180 sec by ITC analysis.
Data set [12] addresses T4, CAR (NR1I3). Description: Agonist activity at human GAL4-fused CAR LBD expressed in human HEK293T cells cotransfected with pFR-Luc and pRL-SV40 assessed as increase in luciferase activity at 30 uM incubated for 16 hrs by Dual-Glo luciferase assay relative to control. The format is cell-based. The conditions noted are these: HEK293T cells expressing GAL4-fused CAR LBD, read-out: Activity.

For orientation: EC50 means the concentration needed to bring the measured effect to its halfway point. Broadly, the Kd is the constant that tells how readily two partners part at equilibrium. A low value points to a tighter complex.

With `Cc1cc(COc2cccc3c2CCC3)ccc1CC(=O)O`, the EC50 in data set [1] and in data set [2] was 43000 nM each time.

In the case of `Cc1ccc(OCc2ccc(C(=O)O)c(F)c2)c2c1CCC2`, the EC50 turned out to be 11 µM in data set [3] and 2900 nM in data set [2].

For the molecule `Cc1ccc(COc2cccc3c2CCC3)cc1CC(=O)O`, the Activity result in data set [4], in data set [5] and in [6] was “Toxic” each time.

Consider `Cc1ccc(COc2ccc(C)c3c2CCC3)cc1CC(=O)O`, for which the Activity result in data set [4], in data set [5] and in data set [6] was “Toxic” throughout.

On to `Cc1ccc(OCc2ccc(CCC(=O)O)cc2)c2c1CCC2`, for which the EC50 in data set [2] was 1100 nM.

On to `O=C(O)c1ccc(CNc2cccc3c2CCC3)cc1`, for which the EC50 in data set [1] was determined as 3100 nM; in [3] it was 13 µM.

As to `Cc1ccc(OCc2ccc(CCC(=O)O)c(Cl)c2)c2c1CCC2`, the half-maximal effective concentration (EC50) in [1] worked out at 7000 nM; in data set [3], 10.6 µM; in data set [2], 8000 nM.

As for `O=C(O)CCc1ccc(COc2cccc3c2CCC3)cc1`, the concentration giving a half-maximal response (EC50) in [1] was found to be 600 nM; in data set [3], 2.6 µM.

As for `Cc1cc(COc2cccc3c2CCC3)ccc1C(=O)O`, the EC50 in data set [1] came to 23000 nM.

Regarding `CN(Cc1ccc(C(=O)O)cc1)c1cccc2c1CCC2`, the half-maximal effective concentration (EC50) in data set [1] stood at 4100 nM; in data set [3] it was 14 µM.

Regarding `Cc1cc(COc2ccc(C)c3c2CCC3)ccc1CCC(=O)O`, the EC50 in data set [1] was 360 nM. The same molecule had a Kd in data set [7] of 200 nM. Besides, the values for the activity at 16 h, 1 µM in [8] and in data set [9] were 6% and 12%, respectively.

`Cc1ccc(OCc2ccc(CCC(=O)O)c(F)c2)c2c1CCC2`: the EC50 in data set [3] was determined as 14 µM. In addition, the activity at 16 h, 30 µM in data set [10] turned out to be 15%; in data set [12], 9%. In data set [11], this molecule registered a Kd of 6 µM.

For the molecule `CC1=C2[C@H](/C=C(\C)C(=O)O)CC[C@@H](C)[C@H]2CC1` [VALERENIC ACID], the EC50 in data set [2] worked out at 5000 nM.

Take `O=C(O)CCc1ccc(COc2cccc3c2CCC3)cc1F`: the EC50 in [1] worked out at 2200 nM; in data set [3], 11 µM; in data set [2], 2800 nM.

For the molecule `O=C(O)c1cccc(COc2cccc3c2CCC3)c1`, in [1], the EC50 was 7000 nM.

As for `O=C(O)c1ccc(COc2cccc3c2CCC3)cc1`, the EC50 in [1] is 1200 nM; in data set [2], 1500 nM.

As for `Cc1ccc(OCc2ccc(C(=O)O)cc2)c2c1CCC2`, in data set [3], the half-maximal effective concentration (EC50) is 5 µM.

For `O=C(O)c1ccc(COc2cccc3c2CCC3)cc1F`, in [1], the EC50 came to 800 nM.

With `Cc1ccc(OCc2ccc(CC(=O)O)cc2)c2c1CCC2`, the EC50 in data set [1] amounted to 2400 nM; in data set [2] it was 2500 nM.

The values are drawn from ChEMBL document CHEMBL5316269, “Rational Design of a New RXR Agonist Scaffold Enabling Single-Subtype Preference for RXRα, RXRβ, and RXRγ” (J Med Chem, 2023).
